# Reference: patent US12440496B2, “Natriuretic peptide receptor a agonists useful for the treatment of cardiometabolic diseases, kidney disease and diabetes” (Merck Sharp & Dohme LLC, priority 2019, dated 2025)
# Counter-ions that a name gives are not always drawn.
# Molecular target: T1, hNPRA (Homo sapiens, UniProt P16066)
# T1 construct: expressed in transfected cells
# T1 sequence (P16066 33-1061): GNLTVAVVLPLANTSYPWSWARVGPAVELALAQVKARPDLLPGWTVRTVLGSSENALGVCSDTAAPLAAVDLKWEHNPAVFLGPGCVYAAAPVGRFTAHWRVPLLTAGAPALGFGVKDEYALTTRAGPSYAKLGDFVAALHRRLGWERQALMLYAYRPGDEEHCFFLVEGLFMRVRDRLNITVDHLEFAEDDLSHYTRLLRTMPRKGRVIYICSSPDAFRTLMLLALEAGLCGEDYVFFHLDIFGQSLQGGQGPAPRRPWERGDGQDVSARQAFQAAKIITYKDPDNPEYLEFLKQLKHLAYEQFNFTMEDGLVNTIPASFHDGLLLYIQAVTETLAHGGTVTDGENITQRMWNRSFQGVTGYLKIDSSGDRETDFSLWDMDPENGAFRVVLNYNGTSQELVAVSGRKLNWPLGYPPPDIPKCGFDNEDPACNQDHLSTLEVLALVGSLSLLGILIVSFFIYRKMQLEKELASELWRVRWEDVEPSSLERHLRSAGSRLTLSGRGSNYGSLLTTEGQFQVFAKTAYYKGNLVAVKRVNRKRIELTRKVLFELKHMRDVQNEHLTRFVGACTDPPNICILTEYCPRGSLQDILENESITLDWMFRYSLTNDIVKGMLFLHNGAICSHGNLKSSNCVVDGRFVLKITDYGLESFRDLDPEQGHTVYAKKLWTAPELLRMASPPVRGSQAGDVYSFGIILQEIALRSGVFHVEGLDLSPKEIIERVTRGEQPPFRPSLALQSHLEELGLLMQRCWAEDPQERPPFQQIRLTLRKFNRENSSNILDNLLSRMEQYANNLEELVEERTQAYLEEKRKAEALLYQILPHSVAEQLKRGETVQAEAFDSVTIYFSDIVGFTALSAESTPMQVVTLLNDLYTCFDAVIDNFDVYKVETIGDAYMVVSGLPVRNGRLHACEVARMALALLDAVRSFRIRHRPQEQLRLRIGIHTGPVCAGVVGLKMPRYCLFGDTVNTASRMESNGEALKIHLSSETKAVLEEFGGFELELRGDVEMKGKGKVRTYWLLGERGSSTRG
# Assay: NPRA Functional Cell Assay (cGMP HTRF, NPRA HEK JumpIn stable cells)
# Type: cell-based
# Conditions: cGMP production, 1 hour at 37° C., 10-point dose response
# Method in brief: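 cGMP HTRF read-out after 1 hour compound treatment at 37° C. of human NPRA-expressing HEK JumpIn cells, 1500 cells/well, in buffer with phosphodiesterase inhibitors IBMX and RO20 (100 uM each). Signal converted to [cGMP] by calibration curve; EC50s fitted by 4-parameter logistic; 50 nM h-ANP as positive response.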
row,Structure (SMILES),EC50
1,"COCCN1CCN(CC[C@@H](NC(=O)c2cc3cc4c(nc3s2)CC[C@H](C(C)(C)C)C4)c2ccc(-c3ccc(=O)[nH]c3)cc2)CC1 (racemic) [Example 66, rac-(6S)-6-tert-butyl-N-[rac-(1R)-3-[4-(2-methoxyethyl)piperazin-1-yl]-1-[4-(6-oxo-1H-pyridin-3-yl)phenyl]propyl]-5,6,7,8-tetrahydrothieno[2,3-b]quinoline-2-carboxamide]",1330 nM
2,"COC1CCN(CC[C@@H](NC(=O)c2cc3cc4c(nc3s2)CC[C@H](C(C)(C)C)C4)c2ccc(-c3ccc(=O)[nH]c3)cc2)CC1 (racemic) [Example 63, rac-(6S)-6-tert-butyl-N-[rac-(1R)-3-(4-methoxypiperidin-1-ium-1-yl)-1-[4-(6-oxo-1H-pyridin-3-yl)phenyl]propyl]-5,6,7,8-tetrahydrothieno[2,3-b]quinoline-2-carboxamide;formate]",1190 nM
3,"CC(C)(C)[C@H]1CCc2nc3sc(C(=O)N[C@H](CCN4CCC(O)CC4)c4cccc(NC(=O)C5CCNC5)c4)nc3cc2C1 (mixture of isomers) [Example 118, rac-(7S)-7-tert-butyl-N-[rac-(1R)-3-(4-hydroxy-1-piperidyl)-1-[3-(pyrrolidin-1-ium-3-carbonylamino)phenyl]propyl]-5,6,7,8-tetrahydrothiazolo[5,4-b] quinoline-2-carboxamide; 2,2,2 trifluoroacetate]",985 nM
4,"CN1CC(CNC(=O)c2cccc([C@@H](CCN3CCC(O)CC3)NC(=O)c3nc4cc5c(nc4s3)CC[C@H](C(C)(C)C)C5)c2)CC1=O (mixture of isomers) [Example 159, rac-(7S)-7-tert-butyl-N-[rac-(1R)-3-(4-hydroxy-1-piperidyl)-1-[3-[(1-methyl-5-oxo-pyrrolidin-3-yl)methylcarbamoyl]phenyl]propyl]-5,6,7,8-tetrahydrothiazolo[5,4-b]quinoline-2-carboxamide]",901 nM
5,"CC(C)(C)[C@H]1CCc2nc3sc(C(=O)N[C@H](CCN4CCCCC4)c4ccc(-c5csc(C(=O)O)c5)cc4)cc3cc2C1 (racemic) [Example 6, ammonium;4-[4-[rac-(1R)-3-(1-piperidyl)-1-[rac-(6S)-6-tert-butyl-5,6,7,8-tetrahydrothieno[2,3-b]quinoline-2-carbonyl]amino]propyl] phenyl]thiophene-2-carboxylate]",877 nM
6,"CC(C)(C)[C@H]1CCc2nc3sc(C(=O)N[C@H](CCN4CCC(F)CC4)c4ccccc4)cc3cc2C1 [Example 252, (6S)-6-tert-butyl-N-[(1R)-3-(4-fluoropiperidin-1-yl)-1-phenylpropyl]-5,6,7,8-tetrahydrothieno[2,3-b]quinoline-2-carboxamide]",6300 nM
7,"CC(C)(C)C1CCc2nc3sc(C(=O)NC(CCN4CCC(O)CC4)c4ccc(N5CCC(O)C5=O)nc4)nc3cc2C1 (racemic) [Example 188, rac-(7S)-7-tert-butyl-N-[rac-(1R)-1-[6-(3-hdyroxy-2-oxo-pyrrolidin-1-yl)-3-pyridyl]-3-(4-hydroxy-1-piperidyl)propyl]-5,6,7,8-tetrahydrothiazolo[5,4-b]quinoline-2-carboxamide]",938 nM
8,"CN1CC(NC(=O)c2cccc([C@@H](CCN3CCC(O)CC3)NC(=O)c3nc4cc5c(nc4s3)CC[C@H](C(C)(C)C)C5)c2)CCC1=O (mixture of isomers) [Example 158, rac-(7S)-7-tert-butyl-N-[rac-(1R)-3-(4-hydroxy-1-piperidyl)-1-[3-[(1-methyl-6-oxo-3-piperidyl)carbamoyl]phenyl]propyl]-5,6,7,8-tetrahydrothiazolo[5,4-b]quinoline-2-carboxamide]",890 nM
9,"O=C(N[C@H](CCN1CCC(O)CC1)c1ccc(N2CCOC2=O)cc1)c1nc2cc3c(nc2s1)CC[C@H](C1(C(F)(F)F)CC1)C3 [Example 232, (S)-N-((R)-3-(4-hydroxypiperidin-1-yl)-1-(4-(2-oxooxazolidin-3-yl)phenyl)propyl)-7-(1-(trifluoromethyl)cyclopropyl)-5,6,7,8-tetrahydrothiazolo[5,4-b]quinoline-2-carboxamide]",2200 nM

# The next compounds have a lower EC50 than those just listed; values first:
row,EC50,Structure (SMILES)
1,721 nM,"CC(C)(C)[C@H]1CCc2nc3sc(C(=O)N[C@H](CCN4CCC(O)CC4)c4cccc(C(=O)NC5CCNC5=O)c4)nc3cc2C1 (mixture of isomers) [Example 154, rac-(7S)-7-tert-butyl-N-[rac-(1R)-3-(4-hydroxy-1-piperidyl)-1-[3-[(2-oxopyrrolidin-3-yl)carbamoyl]phenyl]propyl]-5,6,7,8-tetrahydrothiazolo[5,4-b]quinoline-2-carboxamide]"
2,682 nM,"CC(C)(C)[C@H]1CCc2nc3sc(C(=O)N[C@H](CCN4CCC(O)CC4)c4cccc(C(=O)NCCN5CCOCC5)c4)nc3cc2C1 (racemic) [Example 150, rac-(7S)-7-tert-butyl-N-[rac-(1R)-3-(4-hydroxy-1-piperidyl)-1-[3-(2-morpholinoethylcarbamoyl)phenyl]propyl]-5,6,7,8-tetrahydrothiazolo[5,4-b]quinoline-2-carboxamide]"
3,675 nM,"CC(C)(C)[C@H]1CCc2nc3sc(C(=O)N[C@H](CCN4CCCCC4)c4ccc(-c5ccoc5)cc4)cc3cc2C1 (racemic) [Example 3, rac-(6S)-6-tert-butyl-N-[rac-(1R)-1-[4-(3-furyl)phenyl]-3-(1-piperidyl)propyl]-5,6,7,8-tetrahydrothieno[2,3-b]quinoline-2-carboxamide]"
4,673 nM,"CC1(CN)CN(CC[C@@H](NC(=O)c2cc3cc4c(nc3s2)CC[C@H](C(C)(C)C)C4)c2ccc(-c3ccc(=O)[nH]c3)cc2)C1 (racemic) [Example 46, [3-methyl-1-[rac-(3R)-3-[4-(6-oxo-1H-pyridin-3-yl)phenyl]-3-[[rac-(6S)-6-tert-butyl-5,6,7,8-tetrahydrothieno[2,3-b]quinoline-2-carbonyl]amino]propyl]azetidin-3-yl]methylammonium;formate]"
5,656 nM,"CN1CC(NC(=O)c2cccc([C@@H](CCN3CCC(O)CC3)NC(=O)c3nc4cc5c(nc4s3)CC[C@H](C(C)(C)C)C5)c2)CC1=O (mixture of isomers) [Example 149, rac-(7S)-7-tert-butyl-N-[rac-(1R)-3-(4-hydroxy-1-piperidyl)-1-[3-[(1-methyl-5-oxo-pyrrolidin-3-yl)carbamoyl]phenyl]propyl]-5,6,7,8-tetrahydrothiazolo[5,4-b]quinoline-2-carboxamide]"
6,626 nM,"CC(C)(C)[C@H]1CCc2nc3sc(C(=O)N[C@H](CCN4CCC(C(=O)O)CC4)c4ccc(N5CC(=O)NC5=O)nc4)nc3cc2C1 [Example 222, 1-((R)-3-((S)-7-(tert-butyl)-5,6,7,8-tetrahydrothiazolo[5,4-b]quinoline-2-carboxamido)-3-(6-(2,4-dioxoimidazolidin-1-yl)pyridin-3-yl)propyl)piperidine-4-carboxylic acid]"
7,521 nM,"CN1CC(NC(=O)c2cccc([C@@H](CCN3CCC[C@H]3CC(=O)O)NC(=O)c3nc4cc5c(nc4s3)CC[C@H](C(C)(C)C)C5)c2)C1 (racemic) [Example 106, 2-[rac-(2S)-1-[rac-(3R)-3-[3-[(1-methylazetidin-1-ium-3-yl)carbamoyl]phenyl]-3-[rac-(7S)-7-tert-butyl-5,6,7,8-tetrahydrothiazolo[5,4-b]quinoline-2-carbonyl]amino]propyl] pyrrolidin-2-yl]acetic acid; 2,2,2-trifluoroacetate]"
8,198 nM,"CC(C)(C)[C@H]1CCc2nc3sc(C(=O)N[C@H](CCN4CCC(O)CC4)c4ccc(-c5ccnnc5)cc4)nc3cc2C1 (racemic) [Example 162, rac-(7S)-7-tert-butyl-N-[rac-(1R)-3-(4-hydroxy-1-piperidyl)-1-(4-pyridazin-4-ylphenyl)propyl]-5,6,7,8-tetrahydrothiazolo[5,4-b]quinoline-2-carboxamide]"
9,182 nM,"CC(C)(C)[C@H]1CCc2nc3sc(C(=O)N[C@H](CCN4CCC(O)CC4)c4ccc(N5CCOCS5(=O)=O)nc4)nc3cc2C1 [Example 273, (S)-7-(tert-butyl)-N-((R)-1-(6-(3,3-dioxido-1,3,4-oxathiazinan-4-yl)pyridin-3-yl)-3-(4-hydroxypiperidin-1-yl)propyl)-5,6,7,8-tetrahydrothiazolo[5,4-b]quinoline-2-carboxamide]"
10,102 nM,"CC(C)(C)[C@H]1CCc2nc3sc(C(=O)N[C@H](CCN4CCC(O)CC4)c4cccc(C(=O)N5CC(CN6CCCC6)C5)c4)nc3cc2C1 (racemic) [Example 132, rac-(7S)-7-tert-butyl-N-[rac-(1R)-3-(4-hydroxy-1-piperidyl)-1-[3-[3-(pyrrolidin-1-ylmethyl)azetidine-1-carbonyl]phenyl]propyl]-5,6,7,8-tetrahydrothiazolo[5,4-b]quinoline-2-carboxamide]"
